Earlier results in US20260027125A1, “AN ANTIBACTERIAL PARENTERAL FORMULATION AND METHODS THEREOF” (BUGWORKS RESEARCH INDIA PVT. LTD., priority 2022, published 2026).

Settings: counter ion selected for salt screening; cited from earlier work

## O=C(O)CC(O)C(=O)O (stereo not shown) [malic acid]
  pKa (second value): 3.4, 5.11
